Here are results for eleven molecules from patent US12344610B2, “APOL1 inhibitors and methods of use” (Maze Therapeutics, Inc., priority 2022, dated 2025).

For orientation: EC50 means the concentration that produces a half-maximal response. For orientation: AC50 means the concentration at which the activity in the assay is half-maximal.

Common to all, as to assay type: cell-based
For test [1], the system named is HEK293 clonal cell line overexpressing APOL1 G1. Kind of test: APOL1 G1 HEK293 cell rescue assay (Example B3). Conditions: Homo sapiens, HEK293, HEK293 clonal line overexpressing APOL1 G1; geometric mean of at least 2 runs; † = single run; ¥ = concentration at 50% rescue estimated (no sigmoidal curve). As to the method: Compounds were also assayed in a HEK293 clonal cell line overexpressing APOL1 G1 by a method similar to that shown in Example B2 above.
Unless otherwise specified, EC50 values are reported as the geometric mean of at least 2 assay runs on separate days. Each run represents the average of a technical replicate, where each compound was assayed twice in the same plate. A superscript † symbol indicates a value from the average of a technical replicate from a single assay run, where each compound was assayed twice in the same plate. A ¥ symbol represents compound concentration at 50% rescue estimated due to lack of sigmoidal curve preventing curve fitting. Compounds in Table 41 are referred to by the corresponding Compound Number in Table 1, which is also referred to in the synthetic examples. When one or more of the numbered compounds are identified by stereochemistry (for example, (R)- or (S)-), the specific stereoisomer for which data is provided in Table 41 may be identified by the elution order of such compound as described in the synthetic examples. Absolute stereochemistry of such compounds may be identified by methods known in the art. For Table 41 below, n/a represents “not available”.
Rescue EC50 values reported in Table 41 below represent the half-maximal effective concentration for reversal of cell death caused by overexpression of APOL1.

Test [2] has as its system HEK293 cells overexpressing APOL1 G2. Kind of test: APOL1 G2 HEK293 cell rescue assay (reversal of cell death caused by overexpression of APOL1). The following applies: Homo sapiens, HEK293, HEK293 overexpressing APOL1 G2; geometric mean of at least 2 assay runs; † = single assay run. Here is the method: Unless otherwise specified, EC50 values are reported as the geometric mean of at least 2 assay runs on separate days. Each run represents the average of a technical replicate, where each compound was assayed twice in the same plate. A superscript t symbol indicates a value from the average of a technical replicate from a single assay run, where each compound was assayed twice in the same plate. Compounds in Table 40 are referred to by the corresponding Compound Number in Table 1, which is also referred to in the synthetic examples. When one or more of the numbered compounds are identified by stereochemistry (for example, (R)- or (S)-), the specific stereoisomer for which data is provided in Table 40 may be identified by the elution order of such compound as described in the synthetic examples. Absolute stereochemistry of such compounds may be identified by methods known in the art. For Table 40 below, n/a represents “not available”.
Rescue EC50 values reported in Table 40 below represent the half-maximal effective concentration for reversal of cell death caused by overexpression of APOL1.

A further test has as its target T1, APOL1 G2 (Homo sapiens, UniProt O14791, DEL388-389).
T1 construct: expressed in transfected cells; host or cells: HEK293 T-REx clonal line stably expressing GCaMP6f (HEK T-REx/GCaMP6f/APOL1 G2 K6.3), doxycycline induced
T1 sequence (O14791 with tags, fused parts or gaps DEL388-389): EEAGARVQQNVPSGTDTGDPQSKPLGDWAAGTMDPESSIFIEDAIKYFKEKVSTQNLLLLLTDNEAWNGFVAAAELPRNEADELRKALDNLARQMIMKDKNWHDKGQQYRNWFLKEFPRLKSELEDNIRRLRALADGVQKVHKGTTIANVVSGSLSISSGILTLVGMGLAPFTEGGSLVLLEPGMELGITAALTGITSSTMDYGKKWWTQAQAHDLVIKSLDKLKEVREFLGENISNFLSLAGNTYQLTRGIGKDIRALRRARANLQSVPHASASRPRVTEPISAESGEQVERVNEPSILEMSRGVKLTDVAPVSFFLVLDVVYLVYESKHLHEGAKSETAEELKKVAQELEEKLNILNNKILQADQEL
Kind of test: APOL1-mediated calcium transport (calcium influx) assay, HEK T-REx/GCaMP6f/APOL1 G2 K6.3 cells, FLIPR TETRA. Conditions: prevention of calcium influx; geometric mean of at least 2 assay runs; † = average of a technical replicate from a single assay run. As to the method:
A HEK293 clonal cell line was generated to stably express GCaMP6f, a genetically encoded calcium indicator, and inducibly express APOL1 G2 (HEK T-REx/GCaMP6f/APOL1 G2 K6.3). Cells were maintained in the following standard complete medium: DMEM with 4.5 g/L glucose and sodium pyruvate (BioWhittaker, Lonza, BE12-614F), supplemented with 10% FBS Performance Plus (Gibco, 16000044), 1% penicillin-streptomycin (BioWhittaker, DE17-602E), 2 mM ultraglutamine-1 (BioWhittaker cat. BE 17-605/U1), 50 μg/mL Zeocin (InvivoGen, ant-zn), 2.5 μg/mL Blasticidin (InvivoGen, ant-bl-5), and 25 μg/mL Hygromycin (InvivoGen, ant-hg). Standard propagation conditions consisted of plating 9×10^6, 4×10^6, 2×10^6 cells in a T225 flasks to be processed after 2, 3, or 4 days, respectively.
A source plate was generated containing 20 serially diluted compounds in DMSO (duplicate 8-point dose response). Next, 0.8 μL of compounds were transferred from the source plate to a destination plate prefilled with 79.2 μL of Ca^2+ free Tyrode's buffer (130 mM NaCl, 5 mM KCl, 1 mM MgCl2, 5 mM NaHCO3, 20 mM HEPES at pH 7.4). The destination plate was placed on a plate shaker (5 seconds at 2000 rpm) to mix. […] All transfer and mixing steps were conducted with an CyBi®-Well dispenser.
Cells were split by gently washing with DPBS (Euroclone, ECB4004L), followed by a 5-minute incubation (humidified, 37° C. with 5% CO2) with trypsin-EDTA solution (Euroclone, ECB3052D). Detached cells were diluted with standard complete medium without selective agents, counted, and plated in a 384 MTP microplate (GR4332CPL, Twin Helix) (10,000 cells/well in 25 μl/well) using a MATRIX WellMate dispenser. Plates were placed into a humidified incubator (37° C. with 5% CO2) overnight. The following day, 20 μL of doxycycline (Sigma, D9891) at 20 ng/mL in standard complete medium was added to cells with a CyBi® Drop dispenser to induce APOL1 G2 expression. After a 6-hour incubation (humidified, 37° C. with 5% CO2), cells were washed 3 times with Ca^2+ free Tyrode's Buffer (130 mM NaCl, 5 mM KCl, 1 mM MgCl2, 5 mM NaHCO3, 20 mM HEPES at pH 7.4) using a BIOTEK Microplate washer, such that 10 μL of buffer remained in each well after the final wash. Assay plates were then stored at room temperature for 10 minutes. Next, 10 μL of diluted compounds were transferred to the assay plate from the 2× compound plate using a CyBi®-Well dispenser. Compound incubation was then carried out at room temperature for 10 minutes. The assay plate was transferred to the FLIPR^TETRA and 20 μL of 10 mM Ca^2+ (final concentration=5 mM) Tyrode's buffer was injected.
Unless otherwise specified, AC50 and values are reported as the geometric mean of at least 2 assay runs on separate days. Each run represents the average of a technical replicate, where each compound was assayed twice in the same plate. A superscript t symbol indicates a value from the average of a technical replicate from a single assay run, where each compound was assayed twice in the same plate.
The AC50 values in Table 39 below reflect the compound's ability to prevent calcium influx by inhibiting APOL1. […] Compounds in Table 39 are referred to by the corresponding Compound Number in Table 1, which is also referred to in the synthetic examples. When one or more of the numbered compounds are identified by stereochemistry (for example, (R)- or (S)-), the specific stereoisomer for which data is provided in Table 39 may be identified by the elution order of such compound as described in the synthetic examples. For example, Compounds 39 and 40 are associated with Step 5 of Example 13, where Compound 39 is the first eluting enantiomer, and Compound 40 is the second eluting enantiomer in the chiral separation of Compound 38. For Table 39 below, n/a represents “not available”.

The structures appear in SMILES notation.

Consider `CC(COc1ccc(S(C)(=O)=O)cc1)N1CCC2(CC1)C(=O)N(C1CC(O)C1)c1ccc(Cl)cc12` (mixture of isomers) [Compound 205, 5-chloro-1′-[1-(4-methanesulfonylphenoxy)propan-2-yl]-1-[3-hydroxycyclobutyl]-1,2-dihydrospiro[indole-3,4′-piperidin]-2-one], for which the EC50 in test [1] is 1760 nM; in test [2], 472 nM. In addition, the AC50 on APOL1 G2 was found to be 1220 nM.

As to `C[C@@H](CN1CCC2(CC1)C(=O)Nc1ccc(Cl)cc12)Oc1ccc(S(C)(=O)=O)cc1` (single isomer, unassigned) [Compound 11], the values for the EC50 in test [1] and in test [2] were 2300 nM and 1700 nM, respectively. Further, the AC50 on APOL1 G2 amounted to 1050 nM.

On to `C[C@]1(O)C[C@@H](n2c(=O)cc(C(F)(F)F)c3cc(OCCN4CCC5(CC4)C(=O)Nc4ccc(Cl)cc45)cnc32)C1` [Compound 341, 5-chloro-1′-[2-({7-oxo-8-[(cis)-3-hydroxy-3-methylcyclobutyl]-5-(trifluoromethyl)-7,8-dihydro-1,8-naphthyridin-3-yl}oxy)ethyl]-1,2-dihydrospiro[indole-3,4′-piperidin]-2-one], for which, in test [2], the EC50 was determined as 41.5 nM. The AC50 at APOL1 G2 came to 1060 nM.

For the molecule `C[C@]1(O)C[C@@H](n2c(=O)cc(C(F)(F)F)c3cc(OCCN4CCC5(CC4)C(=O)Nc4ccc(C(F)F)cc45)cnc32)C1` [Compound 342, 5-(difluoromethyl)-1′-[2-({7-oxo-8-[(cis)-3-hydroxy-3-methylcyclobutyl]-5-(trifluoromethyl)-7,8-dihydro-1,8-naphthyridin-3-yl}oxy)ethyl]-1,2-dihydrospiro[indole-3,4′-piperidin]-2-one], the EC50 in test [2] came out at 90.2 nM. Besides, the AC50 at APOL1 G2 is 780 nM.

On to `CC1(O)CC(n2ncc3cc(OCCN4CCC5(CC4)C(=O)Nc4ccc(C#N)cc45)cnc32)C1` (stereo not drawn) [Compound 436, 1′-(2-{[1-(3-hydroxy-3-methylcyclobutyl)-1H-pyrazolo[3,4-b]pyridin-5-yl]oxy}ethyl)-2-oxo-1,2-dihydrospiro[indole-3,4′-piperidine]-5-carbonitrile], for which the values for the EC50 in test [1] and in test [2] were 114 nM and 80.1 nM, respectively.

For the molecule `C[C@]1(O)C[C@H](n2ncc3cc(OCCN4CCC5(CC4)C(=O)Nc4ccc(C#N)cc45)cnc32)C1` [Compound 438, 2-oxo-1′-[2-({1-[(trans)-3-hydroxy-3-methylcyclobutyl]-1H-pyrazolo[3,4-b]pyridin-5-yl}oxy)ethyl]-1,2-dihydrospiro[indole-3,4′-piperidine]-5-carbonitrile], the EC50 in test [1] was 242 nM; in test [2], 204 nM.

On to `CS(=O)(=O)N1CCC(c2ccc(OCCN3CCC4(CC3)C(=O)Nc3ccc(Cl)cc34)cc2)CC1` [Compound 444, 5-chloro-1′-{2-[4-(1-methanesulfonylpiperidin-4-yl)phenoxy]ethyl}-1,2-dihydrospiro[indole-3,4′-piperidin]-2-one], for which the EC50 in test [1] is 72.3 nM; in test [2] it was 22.4 nM.

As for `CC(C)(O)CN1C(=O)CCc2cc(OCCN3CCC4(CC3)C(=O)Nc3ccc(Cl)cc34)cnc21` [Compound 452, 5-chloro-1′-(2-{[8-(2-hydroxy-2-methylpropyl)-7-oxo-5,6,7,8-tetrahydro-1,8-naphthyridin-3-yl]oxy}ethyl)-1,2-dihydrospiro[indole-3,4′-piperidin]-2-one], the EC50 in test [1] was 84.4 nM; in test [2], 28.2 nM.

`C[C@]1(O)C[C@@H](n2cnc3cc(OCCN4CCC5(CC4)C(=O)Nc4ccc(C#N)cc45)cc(F)c32)C1` [Compound 455, 1′-(2-((7-fluoro-1-((cis)-3-hydroxy-3-methylcyclobutyl)-1H-benzo[d]imidazol-5-yl)oxy)ethyl)-2-oxospiro[indoline-3,4′-piperidine]-5-carbonitrile]: the EC50 in test [2] is 75.3 nM. Besides, the AC50 on APOL1 G2 is 1250 nM.

With `C[C@]1(O)C[C@@H](N2C(=O)NCc3cc(OCCN4CCC5(CC4)C(=O)Nc4ccc(C#N)cc45)cc(C(F)(F)F)c32)C1` [Compound 457, 2-oxo-1′-[2-({2-oxo-1-[(cis)-3-hydroxy-3-methylcyclobutyl]-8-(trifluoromethyl)-1,2,3,4-tetrahydroquinazolin-6-yl}oxy)ethyl]-1,2-dihydrospiro[indole-3,4′-piperidine]-5-carbonitrile], the results for the EC50 in test [1] and in test [2] were over 3300 nM and 278 nM, respectively.

Turning to `C[C@]1(O)C[C@@H](n2cnc3nc(OCCN4CCC5(CC4)C(=O)Nc4ccc(Cl)cc45)cc(C(F)(F)F)c32)C1` [Compound 471, 5-chloro-1′-[2-({1-[(cis)-3-hydroxy-3-methylcyclobutyl]-7-(trifluoromethyl)-1H-imidazo[4,5-b]pyridin-5-yl}oxy)ethyl]-1,2-dihydrospiro[indole-3,4′-piperidin]-2-one], the EC50 in test [1] and in test [2] was over 3300 nM each time.
